Reference: ChEMBL document CHEMBL5723583, “Data for DCP probe BAY-9835” (2024)

Legend:
[1] = target: Aldo-keto reductase family 1 member B1 (Homo sapiens) (UniProt P15121); assay: Inhibition of Aldose Reductase at 10.0 µM in the Eurofins-Panlabs selectivity screen; conditions: Rattus norvegicus; Compound concentration 10.0 uM
[2] = target: Adenosine receptor A1 (Homo sapiens) (UniProt P30542); assay: Inhibition of Adenosine A1 at 10.0 µM in the Eurofins-Panlabs selectivity screen; conditions: Compound concentration 10.0 uM
[3] = target: Beta-3 adrenergic receptor (Homo sapiens) (UniProt P13945); assay: Inhibition of Adrenergic beta3 at 10.0 µM in the Eurofins-Panlabs selectivity screen; conditions: Compound concentration 10.0 uM
Chain of Beta-3 adrenergic receptor (Homo sapiens) (P13945 whole entry, looked up): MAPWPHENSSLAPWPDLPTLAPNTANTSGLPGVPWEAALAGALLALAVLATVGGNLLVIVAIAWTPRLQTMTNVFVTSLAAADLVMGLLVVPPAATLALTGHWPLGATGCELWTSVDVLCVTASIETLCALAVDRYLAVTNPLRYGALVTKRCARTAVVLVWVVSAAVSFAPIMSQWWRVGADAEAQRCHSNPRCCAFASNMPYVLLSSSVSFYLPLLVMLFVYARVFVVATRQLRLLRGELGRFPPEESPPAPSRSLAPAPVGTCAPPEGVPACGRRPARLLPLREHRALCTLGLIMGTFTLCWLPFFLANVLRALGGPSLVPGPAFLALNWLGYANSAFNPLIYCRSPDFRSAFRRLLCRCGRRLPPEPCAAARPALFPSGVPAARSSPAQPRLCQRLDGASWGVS

[4] = target: Sodium-dependent noradrenaline transporter (Homo sapiens) (UniProt P23975); assay: Inhibition of Transporter, Norepinephrine (NET) at 10.0 µM in the Eurofins-Panlabs selectivity screen; conditions: Compound concentration 10.0 uM
[5] = target: Histamine H3 receptor (Homo sapiens) (UniProt Q9Y5N1); assay: Inhibition of Histamine H3 at 10.0 µM in the Eurofins-Panlabs selectivity screen; conditions: Compound concentration 10.0 uM
Chain of Histamine H3 receptor (Homo sapiens) (Q9Y5N1 whole entry): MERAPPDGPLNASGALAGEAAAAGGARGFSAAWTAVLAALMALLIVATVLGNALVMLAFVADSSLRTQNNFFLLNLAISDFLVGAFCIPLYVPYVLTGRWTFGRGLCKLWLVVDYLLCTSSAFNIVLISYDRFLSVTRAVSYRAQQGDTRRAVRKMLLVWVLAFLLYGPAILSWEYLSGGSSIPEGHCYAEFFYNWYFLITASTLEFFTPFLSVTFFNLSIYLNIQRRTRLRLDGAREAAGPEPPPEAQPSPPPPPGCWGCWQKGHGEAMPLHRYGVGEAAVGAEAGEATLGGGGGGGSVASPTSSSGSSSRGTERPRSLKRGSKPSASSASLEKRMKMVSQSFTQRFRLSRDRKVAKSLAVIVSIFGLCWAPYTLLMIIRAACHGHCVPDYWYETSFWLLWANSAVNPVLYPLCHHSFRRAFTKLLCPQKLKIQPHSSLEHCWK

[6] = target: Matrix metalloproteinase-14 (Homo sapiens, UniProt P50281); assay: IC50 of hMMP14 at 1.0 µM in the Bayer in-house protease panel
[7] = target: 72 kDa type IV collagenase (Homo sapiens, UniProt P08253); assay: IC50 of hMMP2 at 1.0 µM in the Bayer in-house protease panel
[8] = target: Histamine H2 receptor (Homo sapiens) (UniProt P25021); assay: Inhibition of Histamine H2 at 10.0 µM in the Eurofins-Panlabs selectivity screen; conditions: Compound concentration 10.0 uM
[9] = target: Adenosine receptor A2a (Homo sapiens) (UniProt P29274); assay: Inhibition of Adenosine A2A at 10.0 µM in the Eurofins-Panlabs selectivity screen; conditions: Compound concentration 10.0 uM
[10] = target: Endothelin-1 receptor (Homo sapiens) (UniProt P25101); assay: Inhibition of Endothelin ETA at 10.0 µM in the Eurofins-Panlabs selectivity screen; conditions: Compound concentration 10.0 uM
Chain of Endothelin-1 receptor (Homo sapiens) (P25101 whole entry): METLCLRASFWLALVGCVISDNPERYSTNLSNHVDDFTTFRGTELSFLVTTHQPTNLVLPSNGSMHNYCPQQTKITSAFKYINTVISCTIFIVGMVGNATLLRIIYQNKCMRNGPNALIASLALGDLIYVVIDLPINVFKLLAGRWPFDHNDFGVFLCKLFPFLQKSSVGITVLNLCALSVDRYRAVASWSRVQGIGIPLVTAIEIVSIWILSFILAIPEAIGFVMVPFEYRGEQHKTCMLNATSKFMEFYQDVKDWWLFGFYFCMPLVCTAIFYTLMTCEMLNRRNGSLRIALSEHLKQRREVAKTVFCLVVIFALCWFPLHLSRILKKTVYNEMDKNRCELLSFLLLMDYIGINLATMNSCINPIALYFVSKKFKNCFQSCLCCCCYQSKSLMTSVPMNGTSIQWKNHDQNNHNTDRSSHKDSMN

[11] = target: Muscarinic acetylcholine receptor M1 (Homo sapiens) (UniProt P11229); assay: Inhibition of Muscarinic M1 at 10.0 µM in the Eurofins-Panlabs selectivity screen; conditions: Compound concentration 10.0 uM
[12] = target: B1 bradykinin receptor (Homo sapiens) (UniProt P46663); assay: Inhibition of Bradykinin B1 at 10.0 µM in the Eurofins-Panlabs selectivity screen; conditions: Compound concentration 10.0 uM
[13] = target: Carbonic anhydrase 2 (Homo sapiens) (UniProt P00918); assay: Inhibition of Carbonic Anhydrase II at 10.0 µM in the Eurofins-Panlabs selectivity screen; conditions: Compound concentration 10.0 uM
[14] = target: Alpha-2C adrenergic receptor (Homo sapiens) (UniProt P18825); assay: Inhibition of Adrenergic alpha2C at 10.0 µM in the Eurofins-Panlabs selectivity screen; conditions: Compound concentration 10.0 uM
Chain of Alpha-2C adrenergic receptor (Homo sapiens) (P18825 whole entry): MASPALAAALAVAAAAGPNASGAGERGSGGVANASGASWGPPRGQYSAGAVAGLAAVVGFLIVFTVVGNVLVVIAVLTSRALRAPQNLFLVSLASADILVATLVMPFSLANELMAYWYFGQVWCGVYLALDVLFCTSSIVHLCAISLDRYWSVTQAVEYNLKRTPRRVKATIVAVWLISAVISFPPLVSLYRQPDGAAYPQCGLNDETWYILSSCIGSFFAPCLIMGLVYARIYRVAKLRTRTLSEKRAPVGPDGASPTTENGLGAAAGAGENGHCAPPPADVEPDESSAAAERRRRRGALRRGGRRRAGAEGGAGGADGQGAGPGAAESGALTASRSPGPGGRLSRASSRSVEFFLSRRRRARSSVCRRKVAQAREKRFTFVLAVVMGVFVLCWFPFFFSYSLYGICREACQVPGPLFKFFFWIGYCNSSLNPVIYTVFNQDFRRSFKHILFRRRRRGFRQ

[15] = target: Mu-type opioid receptor (Homo sapiens) (UniProt P35372); assay: Inhibition of Opiate mu (OP3, MOP) at 10.0 µM in the Eurofins-Panlabs selectivity screen; conditions: Compound concentration 10.0 uM
Chain of Mu-type opioid receptor (Homo sapiens) (P35372 whole entry): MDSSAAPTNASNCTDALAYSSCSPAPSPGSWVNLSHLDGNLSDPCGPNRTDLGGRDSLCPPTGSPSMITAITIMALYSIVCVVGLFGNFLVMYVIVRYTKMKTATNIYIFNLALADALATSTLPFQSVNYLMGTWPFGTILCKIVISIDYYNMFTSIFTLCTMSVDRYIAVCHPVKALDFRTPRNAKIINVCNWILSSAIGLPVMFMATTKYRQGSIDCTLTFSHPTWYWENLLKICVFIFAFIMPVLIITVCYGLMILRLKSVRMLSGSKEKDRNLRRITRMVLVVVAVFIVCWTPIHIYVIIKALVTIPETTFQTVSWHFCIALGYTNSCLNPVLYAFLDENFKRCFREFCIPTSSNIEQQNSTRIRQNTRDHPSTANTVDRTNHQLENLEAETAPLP

[16] = target: Prostaglandin G/H synthase 1 (Homo sapiens) (UniProt P23219); assay: Inhibition of Cyclooxygenase COX-1 at 10.0 µM in the Eurofins-Panlabs selectivity screen; conditions: Compound concentration 10.0 uM
[17] = target: Equilibrative nucleoside transporter 1/2/3/4 (Homo sapiens) (UniProt Q99808+Q7RTT9+Q14542+Q9BZD2); assay: Inhibition of Transporter, Adenosine at 10.0 µM in the Eurofins-Panlabs selectivity screen; assay type: protein assay; conditions: Compound concentration 10.0 uM
Chain of Equilibrative nucleoside transporter 1/2/3/4 (Homo sapiens) (Q14542 whole entry, looked up): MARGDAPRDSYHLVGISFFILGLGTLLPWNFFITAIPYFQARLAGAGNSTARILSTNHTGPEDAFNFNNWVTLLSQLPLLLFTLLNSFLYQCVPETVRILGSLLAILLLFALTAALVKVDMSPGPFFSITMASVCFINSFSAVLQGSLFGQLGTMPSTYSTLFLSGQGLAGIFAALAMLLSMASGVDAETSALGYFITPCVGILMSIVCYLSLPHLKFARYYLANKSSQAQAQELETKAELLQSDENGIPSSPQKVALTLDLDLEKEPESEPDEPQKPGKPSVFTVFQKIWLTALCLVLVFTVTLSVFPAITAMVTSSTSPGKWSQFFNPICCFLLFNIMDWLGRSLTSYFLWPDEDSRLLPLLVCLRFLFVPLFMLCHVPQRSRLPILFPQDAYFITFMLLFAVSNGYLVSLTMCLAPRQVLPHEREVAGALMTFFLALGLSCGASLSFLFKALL
Chain of Equilibrative nucleoside transporter 1/2/3/4 (Homo sapiens) (Q7RTT9 whole entry, looked up): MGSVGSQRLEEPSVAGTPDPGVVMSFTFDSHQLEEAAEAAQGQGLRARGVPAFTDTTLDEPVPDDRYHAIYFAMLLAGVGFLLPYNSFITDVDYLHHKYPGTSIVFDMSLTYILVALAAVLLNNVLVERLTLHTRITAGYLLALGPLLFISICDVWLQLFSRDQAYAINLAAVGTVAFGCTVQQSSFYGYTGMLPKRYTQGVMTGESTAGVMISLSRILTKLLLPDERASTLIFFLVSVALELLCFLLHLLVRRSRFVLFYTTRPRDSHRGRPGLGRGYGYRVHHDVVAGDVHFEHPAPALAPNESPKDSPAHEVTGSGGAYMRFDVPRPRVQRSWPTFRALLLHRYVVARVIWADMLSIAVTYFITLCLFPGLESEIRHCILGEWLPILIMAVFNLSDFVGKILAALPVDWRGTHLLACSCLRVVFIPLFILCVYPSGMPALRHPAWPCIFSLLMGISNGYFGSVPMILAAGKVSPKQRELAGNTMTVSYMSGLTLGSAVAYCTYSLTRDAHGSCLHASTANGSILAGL
Chain of Equilibrative nucleoside transporter 1/2/3/4 (Homo sapiens) (Q99808 whole entry, looked up): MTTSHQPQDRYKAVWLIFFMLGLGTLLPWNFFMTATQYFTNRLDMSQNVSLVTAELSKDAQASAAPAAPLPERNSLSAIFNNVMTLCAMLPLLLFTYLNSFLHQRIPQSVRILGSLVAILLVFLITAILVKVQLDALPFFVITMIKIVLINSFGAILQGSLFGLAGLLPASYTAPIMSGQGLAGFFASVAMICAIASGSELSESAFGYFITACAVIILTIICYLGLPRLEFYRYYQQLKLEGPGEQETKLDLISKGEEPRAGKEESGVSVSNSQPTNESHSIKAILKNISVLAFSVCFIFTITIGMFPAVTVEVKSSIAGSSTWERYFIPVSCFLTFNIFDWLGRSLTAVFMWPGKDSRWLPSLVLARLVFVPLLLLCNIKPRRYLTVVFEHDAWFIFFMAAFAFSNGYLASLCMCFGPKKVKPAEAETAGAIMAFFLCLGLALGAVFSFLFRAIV
Chain of Equilibrative nucleoside transporter 1/2/3/4 (Homo sapiens) (Q9BZD2 whole entry, looked up): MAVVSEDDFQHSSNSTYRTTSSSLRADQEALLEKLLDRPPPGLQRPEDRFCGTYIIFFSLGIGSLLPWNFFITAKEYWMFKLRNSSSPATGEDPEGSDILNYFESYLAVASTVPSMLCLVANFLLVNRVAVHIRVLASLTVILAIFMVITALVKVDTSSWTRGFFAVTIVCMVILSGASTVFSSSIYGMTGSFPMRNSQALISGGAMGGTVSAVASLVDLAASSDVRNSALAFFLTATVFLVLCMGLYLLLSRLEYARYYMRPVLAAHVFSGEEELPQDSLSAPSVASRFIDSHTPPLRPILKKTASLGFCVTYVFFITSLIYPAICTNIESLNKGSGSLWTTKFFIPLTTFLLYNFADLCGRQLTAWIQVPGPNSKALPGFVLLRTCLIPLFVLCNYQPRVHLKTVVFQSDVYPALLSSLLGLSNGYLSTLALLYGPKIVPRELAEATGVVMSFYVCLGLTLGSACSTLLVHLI

[18] = target: Purinergic P2Y (Rattus norvegicus) (UniProt O35811+Q9EPX4+P49651+Q63371+P41232+O35881+Q6GUG4); assay: Inhibition of Purinergic P2Y at 10.0 µM in the Eurofins-Panlabs selectivity screen; assay type: protein assay; conditions: Compound concentration 10.0 uM
[19] = target: Mucosa-associated lymphoid tissue lymphoma translocation protein 1 (Homo sapiens, UniProt Q9UDY8); assay: IC50 of MALT1 at 1.0 µM in the Bayer in-house protease panel
Chain of Mucosa-associated lymphoid tissue lymphoma translocation protein 1 (Q9UDY8 whole entry): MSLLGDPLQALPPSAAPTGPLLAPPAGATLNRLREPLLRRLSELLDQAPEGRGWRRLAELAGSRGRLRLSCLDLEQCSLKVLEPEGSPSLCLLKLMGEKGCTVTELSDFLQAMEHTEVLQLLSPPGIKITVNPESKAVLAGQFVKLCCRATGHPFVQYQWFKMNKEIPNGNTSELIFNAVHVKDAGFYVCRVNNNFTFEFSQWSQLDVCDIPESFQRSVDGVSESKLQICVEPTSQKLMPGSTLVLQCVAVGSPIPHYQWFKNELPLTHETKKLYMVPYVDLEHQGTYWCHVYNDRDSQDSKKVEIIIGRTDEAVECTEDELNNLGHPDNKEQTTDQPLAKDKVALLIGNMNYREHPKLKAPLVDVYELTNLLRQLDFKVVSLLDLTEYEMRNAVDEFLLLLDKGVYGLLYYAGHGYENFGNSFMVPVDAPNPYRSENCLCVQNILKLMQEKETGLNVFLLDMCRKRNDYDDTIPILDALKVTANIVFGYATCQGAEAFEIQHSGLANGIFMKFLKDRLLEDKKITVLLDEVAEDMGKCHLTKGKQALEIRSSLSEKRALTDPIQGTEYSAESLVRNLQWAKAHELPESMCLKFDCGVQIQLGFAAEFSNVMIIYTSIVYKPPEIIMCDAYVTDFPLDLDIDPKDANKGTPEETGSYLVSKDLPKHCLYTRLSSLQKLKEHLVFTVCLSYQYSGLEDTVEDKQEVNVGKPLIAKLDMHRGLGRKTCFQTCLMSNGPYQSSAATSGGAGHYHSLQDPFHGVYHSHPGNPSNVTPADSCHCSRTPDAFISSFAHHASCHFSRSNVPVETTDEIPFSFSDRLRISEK

Which inhibition [1] does the source give for `Cn1nccc1[C@]1(CNC(=O)c2ccc(F)c(F)c2-c2ccc(C(F)(F)F)cc2)NC(=O)NC1=O` here?
Its inhibition is -4%.

And the inhibition [2]?
Its inhibition is -4%.

And the inhibition [3]?
The inhibition was -3%.

What about the inhibition [4] of the same compound?
Its inhibition is 6%.

And the inhibition [5]?
The inhibition was 6%.

And the IC50 [6]?
Its IC50 is > 100 µM.

What about the IC50 [7] of the same compound?
The IC50 was > 100 µM.

And the inhibition [8]?
The inhibition was 16%.

And the inhibition [9]?
Its inhibition is 3%.

What about the inhibition [10] of the same compound?
The inhibition was 2%.

And the inhibition [11]?
Its inhibition is -6%.

What about the inhibition [12] of the same compound?
The inhibition was 1%.

What about the inhibition [13] of the same compound?
Its inhibition is -2%.

What about the inhibition [14] of the same compound?
Its inhibition is -1%.

What about the inhibition [15] of the same compound?
Its inhibition is 2%.

What about the inhibition [16] of the same compound?
Its inhibition is -5%.

What about the inhibition [17] of the same compound?
The inhibition was 11%.

And the inhibition [18]?
The inhibition was -4%.

What about the IC50 [19] of the same compound?
The IC50 was > 100 µM.
